Assay results: PubChem BioAssay (NCI)
Several values for one entry are separate records, joined by “and”; a condition that tells them apart may be missing. Equal values may be shown once.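 Exposure lasted 48 hours, with cells grown in 96-well plates and compounds tested at five concentrations. GI50: concentration for 50% inhibition of growth. TGI is the concentration that stops growth completely.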

Assays:
Assay in all cases: NCI tumour cell line growth inhibition, 48 h
[1] = test system: A549 NSCLC
[2] = test system: ACHN renal
[3] = test system: CCRF-CEM leukemia
[4] = test system: HCT-116 colon
[5] = test system: HCT-15 colon
[6] = test system: HOP-92 NSCLC
[7] = test system: HS 578T breast
[8] = test system: IGROV1 ovarian
[9] = test system: LOX IMVI melanoma
[10] = test system: M14 melanoma
[11] = test system: MALME-3M melanoma
[12] = test system: MCF7 breast
[13] = test system: MDA-N
[14] = test system: NCI-H522 lung
[15] = test system: OVCAR-4 ovarian
[16] = test system: OVCAR-5 ovarian
[17] = test system: OVCAR-8 ovarian

SMILES | TGI [1] [µM] | TGI [2] [µM] | TGI [3] [µM] | TGI [4] [µM] | TGI [5] [µM] | TGI [6] | TGI [7] [µM] | TGI [8] [µM] | TGI [9] [µM] | TGI [10] | TGI [11] [µM] | TGI [12] [µM] | TGI [13] | TGI [14] [µM] | TGI [15] [µM] | TGI [16] [µM] | TGI [17] [µM] | GI50 [7]
CC(C)=CCNc1ncnc2c1ncn2CCC(=O)OC(C)(C)C | > 100 | > 100 | > 100 | > 100 | > 100 | > 100 µM | > 100 | > 100 | > 100 | > 100 µM | > 100 | > 100 | > 100 µM | > 100 | 40.4 | > 100 | > 100 | 
COC(=O)c1ccccc1C1CN=NC12Cc1c(C)cc(C)cc1C2=O (stereo not given) | > 100 | > 100 | > 100 | > 100 | > 100 | > 100 µM | > 100 | > 100 | > 100 | > 100 µM | > 100 | > 100 | > 100 µM | > 100 | > 100 | > 100 | > 100 | 
CCOC(=O)Cc1ccc(Nc2nc3cc(C(F)(F)F)ccc3nc2C(=O)OCC)cc1 | > 100 | > 100 |  | > 100 | > 100 | > 100 µM | 85.1 | > 100 | > 100 | > 100 µM | > 100 | > 100 | > 100 µM | > 100 | > 100 | > 100 | > 100 | 
CC(=O)N1NC(c2ccccc2)=CC(=O)/C1=C/C(=O)c1ccccc1 | > 100 | > 100 | > 100 | > 100 | > 100 | > 100 µM | > 100 | > 100 | > 100 | > 100 µM | > 100 | > 100 | > 100 µM | 57.2 | > 100 | > 100 | > 100 | 
COC(=O)/C=C\c1ccc2c(c1)CC1(C2)Cc2ccc(/C=C/C(=O)OC)cc2C1 (stereo not given) | > 31.6 | > 31.6 | > 31.6 | > 31.6 | > 31.6 | > 31.6 µM | > 31.6 | > 31.6 | > 31.6 | > 31.6 µM | > 31.6 | > 31.6 | > 31.6 µM | > 31.6 | > 31.6 | > 31.6 | > 31.6 | 
C=CCNC1=C2C[C@@H](C)C[C@@H](OC)[C@H](OC(=O)CN(C)C)[C@H](C)/C=C(\C)[C@@H](OC(N)=O)[C@H](OC)/C=C\C=C(/C)C(=O)NC(=CC1=O)C2=O | 16.9 | 20.1 | > 59.3 | 16.2 | 20.4 | 23.3 µM | 47.7 | 13.5 | 8.19 | 18.9 µM | 19 | 14.3 | 13.3 µM | 18.3 | 26 | 25.7 | 63.1 | 
CC1=C(C)SC(=C2Sc3c(n(C)c(=O)[nH]c3=O)S2)S1 | > 100 | > 100 | > 100 | > 100 | > 100 | > 100 µM | > 100 | > 100 | > 100 | > 100 µM | > 100 | > 100 | > 100 µM | > 100 | > 100 | > 100 | > 100 | 
CCCCCCCC1c2cc3[nH]c(cc4nc(cc5[nH]c(cc(n2)[C@@]1(C)CC(=O)N(C)C)c(C)c5CCC(=O)O)C(CCC(=O)O)=C4C)cc3C (stereo not given in full) | > 100 | 35.8 | 42.6 | 32.5 | 39.5 | 43.8 µM | 40.6 | 39.6 | 33.3 | 29.8 µM | 39 | 92.3 | > 100 µM | 37.8 | > 100 | 55.5 |  | 
CC1OC(OC2C(OC(=O)[C@]34CCC(C)(C)C[C@H]3C3=CC[C@@H]5[C@@]6(C)CC[C@H](OC7OC(C(=O)O)C(O)C(O)C7O)C(C)(C)[C@@H]6CC[C@@]5(C)[C@]3(C)CC4)OCC(O)C2O)C(O)C(O)C1OC1OCC(O)C(O)C1O (stereo not given in full) | > 100 |  | > 100 | > 100 | > 100 | 99.8 µM and 43.7 µM | > 100 | > 100 | > 100 | 56 µM and 35.6 µM | > 100 | > 100 | 37.8 µM and 36.2 µM | > 100 | > 100 | > 100 | > 100 | > 100 µM and 45.5 µM
CCOC(=O)Cn1c(=O)c2nc(SC)sc2n(-c2ccc(C)cc2)c1=S | > 100 | > 100 | > 100 | > 100 | > 100 | 68.1 µM | > 66.5 | > 100 | > 100 | > 100 µM | > 92 | > 100 | > 100 µM | > 100 | 35.2 | > 100 | > 100 | 
O=C(NO)c1cccc(OCc2ccc(Br)cc2)c1 | > 58.5 | 12.8 | > 20 | 15.2 | > 100 | 46.7 µM | 75.4 | 35 | > 34.8 | 20.1 µM | 17.6 | > 65 | 27.5 µM | 16.2 | > 100 | > 70.7 | 17.4 | 
C=C(Cl)C(C)(Cl)CCC(Cl)C(C)(C)Cl (stereo not given) | > 100 | > 100 | > 100 | > 100 |  | > 100 µM | > 100 | > 100 | 61.2 | > 100 µM | > 100 | > 100 | > 100 µM | 56.3 | > 100 | > 100 |  | 
CC(=O)OCc1nc(C#N)c(N)o1 |  | > 100 | > 100 | > 100 | > 100 | > 100 µM | > 100 | > 100 | > 100 |  | > 100 | > 100 | > 100 µM | > 100 | > 100 | > 100 |  | 
CC(C)(C)CN1[C@@H]2CCCC[C@H]2N(CC(C)(C)C)P1(=O)Cc1ccccc1 | 24.1 | 28.5 | 31.3 | 22.6 | 25 |  | 31 | 23.3 | 29.6 | 26.3 µM | 26.3 | 26.2 | 28.4 µM | 20.6 | 24.9 | 25.4 | 27.7 | 
